This is an account of results in PubChem BioAssay (NCI).

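A five-concentration, 48-hour dose response in 96-well plates underlies each endpoint, interpolated linearly between surrounding concentrations. GI50 marks 50% less growth. TGI is the concentration that stops growth completely.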 Where a SMILES comes first, the peptide text is derived from it. The star is where a group is joined. Palmitoyl = CCCCCCCCCCCCCCCC(=O)*

Some test systems named below: BT-549 breast; CCRF-CEM leukemia; MDA-N; MOLT-4 leukemia; NCI-H23 lung; OVCAR-8 ovarian; RPMI-8226 leukemia; SK-OV-3 ovarian; SW-620 colon; HOP-92 NSCLC.
Common to all, as to assay: growth of human tumour cells (NCI), 48 h

Turning to `Cn1ncc2c(NCc3ccccc3)ncnc21`, the TGI with BT-549 breast, with CCRF-CEM leukemia, with MDA-N, in the assay on MOLT-4 leukemia, in the assay with NCI-H23 lung and in the assay with OVCAR-8 ovarian was over 100 µM each time. Moreover, the TGI in the assay with RPMI-8226 leukemia, in the assay on SK-OV-3 ovarian and in the assay with SW-620 colon was over 100 µM in each case.
Turning to `COc1ccc(N2C(=O)C3c4[nH]c5cc(C)ccc5c4C4CCC(C(C)(C)C)CC4C3C2=O)cc1` (stereo not drawn), the TGI in the assay on CCRF-CEM leukemia, in the assay on MDA-N, in the assay with MOLT-4 leukemia, in the assay with NCI-H23 lung, with OVCAR-8 ovarian and in the assay with RPMI-8226 leukemia was over 10 µM in each case. For the same compound, the TGI with SK-OV-3 ovarian and in the assay on SW-620 colon was over 10 µM throughout.
`O=C(OCC(Cl)(Cl)Cl)N1CC[C@H](C2CCCCC2)C1`: the TGI in the assay on BT-549 breast is 53.9 µM; in the assay with CCRF-CEM leukemia, 36.1 µM; in the assay with MDA-N it was over 100 µM; with MOLT-4 leukemia, 50.5 µM; in the assay with NCI-H23 lung, 33.2 µM; with SK-OV-3 ovarian, 31.8 µM.
`OC(C#CCN1CCCC1)(c1ccccc1)c1ccccc1Cl` (stereo not drawn): the TGI is over 100 µM with BT-549 breast; over 100 µM in the assay on CCRF-CEM leukemia; 50.9 µM in the assay with MDA-N; 91.2 µM in the assay with MOLT-4 leukemia; over 100 µM with NCI-H23 lung; over 100 µM with OVCAR-8 ovarian. Besides, the TGI in the assay on RPMI-8226 leukemia was over 100 µM; in the assay on SK-OV-3 ovarian, over 100 µM; in the assay with SW-620 colon it was 39.3 µM.
In the case of `Cc1ccnc(NC(=S)Nc2ccc([N+](=O)[O-])cc2)c1`, the TGI with BT-549 breast, in the assay on CCRF-CEM leukemia, with HOP-92 NSCLC, in the assay on MOLT-4 leukemia, in the assay on NCI-H23 lung and in the assay on OVCAR-8 ovarian was over 100 µM in each case. In addition, the TGI with RPMI-8226 leukemia, in the assay with SK-OV-3 ovarian and in the assay on SW-620 colon was over 100 µM in each case.
Take `CNc1[nH]c(=S)nc2sc3c(c12)CCCC3`: the TGI in the assay on BT-549 breast, with MOLT-4 leukemia, with NCI-H23 lung, with OVCAR-8 ovarian, in the assay on RPMI-8226 leukemia and in the assay on SW-620 colon was over 75 µM throughout.
Consider `CCCCCCCCCCCCCCCC(=O)N1CCCC1C(=O)NCC(=O)NC(Cc1ccccc1)C(=O)N1CCCC1C(=O)NC(CO)C(=O)NC(Cc1ccc(O)cc1)C(=O)NC(CCCCN)C(=O)NC(CC(C)C)C(=O)NC(CCCN=C(N)N)C(=O)N1CCCC1C(=O)NCC(N)=O` (stereo not drawn) (Palmitoyl-PGFPSYKLRPG-NH2; configuration not given here), for which the GI50 with BT-549 breast is 20.8 µM; with CCRF-CEM leukemia it was 17 µM; in the assay with HOP-92 NSCLC, 18.7 µM; in the assay on MOLT-4 leukemia it was 18.6 µM; in the assay with NCI-H23 lung, 18.7 µM; in the assay with OVCAR-8 ovarian, 22.1 µM. Moreover, the GI50 with RPMI-8226 leukemia was 11.6 µM; with SK-OV-3 ovarian it was 23.2 µM; with SW-620 colon it was 25.5 µM. Besides, the TGI with BT-549 breast is 43.2 µM; with CCRF-CEM leukemia, 33.8 µM; in the assay with HOP-92 NSCLC it was 38.9 µM; in the assay with MOLT-4 leukemia it was 37.7 µM; in the assay on NCI-H23 lung, 36.6 µM; in the assay on OVCAR-8 ovarian, 55.4 µM. The TGI was 29.3 µM in the assay on RPMI-8226 leukemia, 48.1 µM in the assay with SK-OV-3 ovarian and 73.9 µM with SW-620 colon.
Consider `Cc1nc2ccccc2c(-n2cccn2)c1CCn1cccn1`, for which the TGI in the assay on CCRF-CEM leukemia, in the assay on HOP-92 NSCLC, in the assay with MDA-N, in the assay with MOLT-4 leukemia, in the assay with NCI-H23 lung and with OVCAR-8 ovarian was over 100 µM each time. The TGI with RPMI-8226 leukemia, with SK-OV-3 ovarian and in the assay with SW-620 colon was over 100 µM throughout.
As to `COc1ccc(CC(N)=O)cc1OC`, the TGI in the assay with CCRF-CEM leukemia is over 1250 µM; with HOP-92 NSCLC, over 1170 µM; in the assay with MOLT-4 leukemia, over 1250 µM; in the assay with NCI-H23 lung, over 1250 µM; in the assay with OVCAR-8 ovarian, over 125 µM; in the assay with RPMI-8226 leukemia, over 1250 µM. Further, the TGI with SK-OV-3 ovarian and in the assay with SW-620 colon was over 1250 µM throughout.
As to `COc1cc(O)c2c(=O)c(OC)c(-c3ccc(OC)c(O)c3)oc2c1`, the TGI with BT-549 breast, with CCRF-CEM leukemia, in the assay on MDA-N, in the assay on MOLT-4 leukemia, with NCI-H23 lung and with OVCAR-8 ovarian was over 100 µM throughout. The TGI in the assay on RPMI-8226 leukemia, in the assay on SK-OV-3 ovarian and with SW-620 colon was over 100 µM each time.
Regarding `CC(C)C1=CC23CCC4C(C)(C(=O)O)CCCC4(C)C2CC1C1C(=O)N(CCCCCCN2C(=O)C4C5CC6C7(C)CCCC(C)(C(=O)O)C7CCC6(C=C5C(C)C)C4C2=O)C(=O)C13` (stereo not drawn), the TGI in the assay with CCRF-CEM leukemia came to 37.7 µM; with HOP-92 NSCLC, 36.2 µM; in the assay on MDA-N, 28.4 µM; with MOLT-4 leukemia, 30.1 µM; in the assay on NCI-H23 lung, 14.9 µM; in the assay with OVCAR-8 ovarian it was 24.9 µM. The TGI in the assay with RPMI-8226 leukemia is over 100 µM; with SW-620 colon, 33.4 µM.
Turning to `COc1cc2c(cc1OCCCCCN1CCN(c3ncnc4ccccc34)CC1)N=CC1CCCN1C2=O` (stereo not drawn), the GI50 is 0.0229 µM with BT-549 breast; 0.0133 µM with CCRF-CEM leukemia; 0.0224 µM in the assay on HOP-92 NSCLC; 0.0194 µM in the assay on MOLT-4 leukemia; 0.0342 µM in the assay on NCI-H23 lung; 0.0334 µM with OVCAR-8 ovarian. For the same compound, the results for the GI50 in the assay on RPMI-8226 leukemia and in the assay with SK-OV-3 ovarian were under 0.0138 µM and 0.0334 µM, respectively. The TGI in the assay on BT-549 breast was 0.0628 µM; in the assay with CCRF-CEM leukemia, 0.0727 µM; with HOP-92 NSCLC it was 0.069 µM; in the assay with MOLT-4 leukemia, 0.0706 µM; with NCI-H23 lung it was 0.196 µM; with OVCAR-8 ovarian, over 81.9 µM. Further, the TGI turned out to be 0.035 µM with RPMI-8226 leukemia and 0.379 µM in the assay with SK-OV-3 ovarian.
As for `O=c1onc2n1-c1cc(Cl)ccc1C(=S)N1CSCC21` (stereo not drawn), the TGI in the assay with BT-549 breast, in the assay on CCRF-CEM leukemia, in the assay with MDA-N, with MOLT-4 leukemia, with OVCAR-8 ovarian and with RPMI-8226 leukemia was over 100 µM throughout. Moreover, the TGI with SK-OV-3 ovarian and in the assay with SW-620 colon was over 100 µM in each case.
